Reference: patent US20130296311A1, “INHIBITORS OF HCV NS5A” (PRESIDIO PHARMACEUTICALS, INC., priority 2010, published 2013)

System: HCV 1b_Huh-Luc/Neo-ET cell line persistently expressing a bicistronic genotype 1b replicon in Huh 7 cells
Assay: HCV replicon assay (luciferase readout, 72 h)
Assay type: cell-based, HCV genotype 1b
Details: Hepatitis C virus, Huh-7, 72 h, read-out: Inhibition of HCV genotype 1b
In short: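 EC50 values come from a four-parameter fit of luciferase signal as % of untreated control, repeated across several determinations. The signal is from the HCV 1b_Huh-Luc/Neo-ET replicon line, dosed in triplicate one day post-plating and incubated 72 h before Bright-Glo readout.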

| SMILES | EC50 |
| --- | --- |
| O=C(N[C@@H](C(=O)N1CCC[C@H]1c1ncc(-c2ccc(C#Cc3ccc(-c4cnc([C@@H]5CCCN5C(=O)[C@H](NC(=O)N5CCCCC5)c5ccccc5)[nH]4)cc3)cc2)[nH]1)c1ccccc1)N1CCCCC1 [Compound 250] | < 1 nM |
| O=C(N[C@@H](C(=O)N1CCC[C@H]1c1ncc(-c2ccc(C#Cc3ccc(-c4cnc([C@@H]5CCCN5C(=O)[C@H](NC(=O)N5CCC(O)CC5)c5ccccc5)[nH]4)cc3)cc2)[nH]1)c1ccccc1)N1CCC(O)CC1 [Compound 251] | < 1 nM |
| O=C(N[C@@H](C(=O)N1CCC[C@H]1c1ncc(-c2ccc(C#Cc3ccc(-c4cnc([C@@H]5CCCN5C(=O)[C@H](NC(=O)N5CC[C@@H](O)C5)c5ccccc5)[nH]4)cc3)cc2)[nH]1)c1ccccc1)N1CC[C@@H](O)C1 [Compound 252] | < 1 nM |
| COC(=O)N[C@@H](C(=O)N1CCC[C@H]1c1ncc(-c2ccc(C#Cc3ccc(-c4cnc([C@@H]5CCCN5C(=O)[C@H](NC(=O)N5CCS(=O)(=O)CC5)c5ccccc5)[nH]4)cc3)cc2)[nH]1)c1ccccc1 [Compound 253] | < 1 nM |
| COC(=O)N[C@@H](C(=O)N1CCC[C@H]1c1ncc(-c2ccc(C#Cc3ccc(-c4cnc([C@@H]5CCCN5C(=O)[C@H](NC(=O)N5CCC[C@@H]5CO)c5ccccc5)[nH]4)cc3)cc2)[nH]1)c1ccccc1 [Compound 254] | < 1 nM |
| COC(=O)N[C@@H](C(=O)N1CCC[C@H]1c1ncc(-c2ccc(C#Cc3ccc(-c4cnc([C@@H]5CCCN5C(=O)[C@H](NC(=O)N5CCC[C@H]5CO)c5ccccc5)[nH]4)cc3)cc2)[nH]1)c1ccccc1 [Compound 255] | < 1 nM |
| COC(=O)N[C@@H](C(=O)N1CCC[C@H]1c1ncc(-c2ccc(C#Cc3ccc(-c4cnc([C@@H]5CCCN5C(=O)[C@H](C)c5ccccc5)[nH]4)cc3)cc2)[nH]1)c1ccccc1 [Compound 256] | < 1 nM |
| COC(=O)N[C@@H](C(=O)N1CCC[C@H]1c1ncc(-c2ccc(C#Cc3ccc(-c4cnc([C@@H]5CCCN5C(=O)C5(c6ccccc6)CC5)[nH]4)cc3)cc2)[nH]1)c1ccccc1 [Compound 257] | < 1 nM |
| CC[C@@H](C(=O)N1CCC[C@H]1c1ncc(-c2ccc(C#Cc3ccc(-c4cnc([C@@H]5CCCN5C(=O)[C@H](NC(=O)OC)c5ccccc5)[nH]4)cc3)cc2)[nH]1)c1ccccc1 [Compound 258] | < 1 nM |
| COC[C@H]1CCCN1C(=O)N[C@@H](C(=O)N1CCC[C@H]1c1ncc(-c2ccc(C#Cc3ccc(-c4cnc([C@@H]5CCCN5C(=O)[C@H](NC(=O)OC)c5ccccc5)[nH]4)cc3)cc2)[nH]1)c1ccccc1 [Compound 259] | < 1 nM |
| COC[C@@H]1CCCN1C(=O)N[C@@H](C(=O)N1CCC[C@H]1c1ncc(-c2ccc(C#Cc3ccc(-c4cnc([C@@H]5CCCN5C(=O)[C@H](NC(=O)OC)c5ccccc5)[nH]4)cc3)cc2)[nH]1)c1ccccc1 [Compound 260] | < 1 nM |
| COC(=O)N[C@@H](C(=O)N1CCC[C@H]1c1ncc(-c2ccc(C#Cc3ccc(-c4cnc([C@@H]5CCCN5C(=O)[C@H](NC(=O)N5CCC[C@@H]5C)c5ccccc5)[nH]4)cc3)cc2)[nH]1)c1ccccc1 [Compound 261] | < 1 nM |
| COC(=O)N[C@@H](C(=O)N1CCC[C@H]1c1ncc(-c2ccc(C#Cc3ccc(-c4cnc([C@@H]5CCCN5C(=O)[C@H](NC(=O)N5CCC[C@H]5C)c5ccccc5)[nH]4)cc3)cc2)[nH]1)c1ccccc1 [Compound 262] | < 1 nM |
| COC(=O)N[C@@H](C(=O)N1CCC[C@H]1c1ncc(-c2ccc(C#Cc3ccc(-c4cnc([C@@H]5CCCN5C(=O)[C@H](NC(=O)N5CCC[C@H](O)C5)c5ccccc5)[nH]4)cc3)cc2)[nH]1)c1ccccc1 [Compound 263] | < 1 nM |
| COC(=O)N[C@@H](C(=O)N1CCC[C@H]1c1ncc(-c2ccc(C#Cc3ccc(-c4cnc([C@@H]5CCCN5C(=O)[C@H](NC(=O)N5CCC[C@@H](O)C5)c5ccccc5)[nH]4)cc3)cc2)[nH]1)c1ccccc1 [Compound 264] | < 1 nM |
| C[C@@H](c1ncc(-c2ccc(C#Cc3ccc(-c4cnc([C@@H]5CCCN5C(=O)[C@H](NC(=O)OC(C)(C)C)c5ccccc5)[nH]4)cc3)cc2)[nH]1)N(C)C(=O)[C@H](NC(=O)OC(C)(C)C)c1ccccc1 [Compound 265] | < 1 nM |
| COC(=O)N[C@H](C(=O)N1CCC[C@H]1c1ncc(-c2ccc(C#Cc3ccc(-c4cnc([C@@H]5CCCN5C(=O)[C@@H](NC(=O)OC)C(C)C)[nH]4)cc3)cc2)[nH]1)C(C)C [Compound 266] | < 1 nM |
| COC(=O)N[C@H](C(=O)N(C)[C@@H](C)c1ncc(-c2ccc(C#Cc3ccc(-c4cnc([C@@H]5CCCN5C(=O)[C@@H](NC(=O)OC)C(C)C)[nH]4)cc3)cc2)[nH]1)C(C)C [Compound 267] | < 1 nM |
| COC(=O)N[C@@H](C(=O)N1CCC[C@H]1c1ncc(-c2ccc(C#Cc3ccc(-c4cnc([C@@H]5CCCN5C(=O)[C@H](NC(=O)N5CC[C@@H](O)C5)c5ccccc5)[nH]4)cc3)cc2)[nH]1)c1ccccc1 [Compound 268] | < 1 nM |
| COC(=O)N[C@@H](C(=O)N1CCC[C@H]1c1ncc(-c2ccc(C#Cc3ccc(-c4cnc([C@@H]5CCCN5C(=O)[C@H](NC(=O)N5CC[C@H](O)C5)c5ccccc5)[nH]4)cc3)cc2)[nH]1)c1ccccc1 [Compound 269] | < 1 nM |

| SMILES | EC50 |
| --- | --- |
| COC(=O)N[C@@H](C(=O)N1CCC[C@H]1c1ncc(-c2ccc(C#Cc3ccc(-c4cnc([C@@H]5CCCN5C(=O)[C@H](NC(=O)N5CC[C@H](F)C5)c5ccccc5)[nH]4)cc3)cc2)[nH]1)c1ccccc1 [Compound 270] | < 1 nM |
| COC(=O)N[C@@H](C(=O)N1CCC[C@H]1c1ncc(-c2ccc(C#Cc3ccc(-c4cnc([C@@H]5CCCN5C(=O)[C@H](NC(=O)N5CC[C@@H](OC)C5)c5ccccc5)[nH]4)cc3)cc2)[nH]1)c1ccccc1 [Compound 271] | < 1 nM |
| COC(=O)N[C@@H](C(=O)N1CCC[C@H]1c1ncc(-c2ccc(C#Cc3ccc(-c4cnc([C@@H]5CCCN5C(=O)[C@H](NC(=O)N5CC[C@H](OC)C5)c5ccccc5)[nH]4)cc3)cc2)[nH]1)c1ccccc1 [Compound 272] | < 1 nM |
| COC(=O)N[C@@H](C(=O)N1CCC[C@H]1c1ncc(-c2ccc(C#Cc3ccc(-c4cnc([C@@H]5CCCN5C(=O)[C@H](NC(=O)N5CCC(C)(O)CC5)c5ccccc5)[nH]4)cc3)cc2)[nH]1)c1ccccc1 [Compound 273] | < 1 nM |
| COC(=O)N[C@@H](C(=O)N(C)[C@@H](C)c1ncc(-c2ccc(C#Cc3ccc(-c4cnc([C@@H]5CCCN5C(=O)[C@H](NC(=O)OC)c5ccccc5)[nH]4)cc3)cc2)[nH]1)c1ccccc1 [Compound 274] | < 1 nM |
| COC(=O)N[C@H](C(=O)N[C@@H](C)c1ncc(-c2ccc(C#Cc3ccc(-c4cnc([C@@H]5CCCN5C(=O)[C@@H](NC(=O)OC)C(C)C)[nH]4)cc3)cc2)[nH]1)C(C)C [Compound 275] | < 1 nM |
| COC(=O)N[C@H](C(=O)N[C@H](c1ncc(-c2ccc(C#Cc3ccc(-c4cnc([C@@H]5CCCN5C(=O)[C@@H](NC(=O)OC)C(C)C)[nH]4)cc3)cc2)[nH]1)C(C)C)C(C)C [Compound 276] | 1 to 9.9 nM |
| COC(=O)N[C@@H](C(=O)N1CCC[C@H]1c1ncc(-c2ccc(C#Cc3ccc(-c4cnc([C@@H]5CCCN5C(=O)[C@H](NC(=O)C5(O)CC5)c5ccccc5)[nH]4)cc3)cc2)[nH]1)c1ccccc1 [Compound 277] | < 1 nM |
| C[C@@H](c1ncc(-c2ccc(C#Cc3ccc(-c4cnc([C@@H]5CCCN5C(=O)[C@H](NC(=O)C5CC5)c5ccccc5)[nH]4)cc3)cc2)[nH]1)N(C)C(=O)[C@H](NC(=O)C1CC1)c1ccccc1 [Compound 278] | < 1 nM |
| COC(=O)NC(C(=O)N[C@@H](C)c1ncc(-c2ccc(C#Cc3ccc(-c4cnc([C@@H]5CCCN5C(=O)[C@H](NC(=O)OC)c5ccccc5)[nH]4)cc3)cc2)[nH]1)c1ccccc1 (stereo partly drawn) [Compound 279] | < 1 nM |
| C[C@H](NC(=O)[C@H](NC(=O)OC(C)(C)C)c1ccccc1)c1ncc(-c2ccc(C#Cc3ccc(-c4cnc([C@@H]5CCCN5C(=O)[C@H](NC(=O)OC(C)(C)C)c5ccccc5)[nH]4)cc3)cc2)[nH]1 [Compound 280] | < 1 nM |
| CC(C)[C@H](NC(=O)[C@H](NC(=O)OC(C)(C)C)c1ccccc1)c1ncc(-c2ccc(C#Cc3ccc(-c4cnc([C@@H]5CCCN5C(=O)[C@H](NC(=O)OC(C)(C)C)c5ccccc5)[nH]4)cc3)cc2)[nH]1 [Compound 281] | 1 to 9.9 nM |
| COC(=O)N[C@@H](C(=O)N[C@H](c1ncc(-c2ccc(C#Cc3ccc(-c4cnc([C@@H]5CCCN5C(=O)[C@H](NC(=O)OC)c5ccccc5)[nH]4)cc3)cc2)[nH]1)C(C)C)c1ccccc1 [Compound 282] | < 1 nM |
| COC(=O)N[C@H](C(=O)N1CCC[C@H]1c1ncc(-c2ccc(C#Cc3ccc(-c4cnc([C@@H]5CCCN5C(=O)[C@@H](NC(=O)OC)[C@@H](C)O)[nH]4)cc3)cc2)[nH]1)[C@@H](C)O [Compound 283] | < 1 nM |
| COC(=O)N[C@H](C(=O)N1CCC[C@H]1c1ncc(-c2ccc(C#Cc3ccc(-c4cnc([C@@H]5CCCN5C(=O)[C@@H](NC(=O)OC)[C@@H](C)OC)[nH]4)cc3)cc2)[nH]1)[C@@H](C)OC [Compound 284] | < 1 nM |
| CC(C)[C@H](NC(=O)N1CCOCC1)C(=O)N1CCC[C@H]1c1ncc(-c2ccc(C#Cc3ccc(-c4cnc([C@@H]5CCCN5C(=O)[C@@H](NC(=O)N5CCOCC5)C(C)C)[nH]4)cc3)cc2)[nH]1 [Compound 285] | > 1000 nM |
| CC(C)[C@H](NC(=O)N1CCC(O)CC1)C(=O)N1CCC[C@H]1c1ncc(-c2ccc(C#Cc3ccc(-c4cnc([C@@H]5CCCN5C(=O)[C@@H](NC(=O)N5CCC(O)CC5)C(C)C)[nH]4)cc3)cc2)[nH]1 [Compound 286] | > 1000 nM |
| CC(C)[C@H](NC(=O)N1CCN(C)CC1)C(=O)N1CCC[C@H]1c1ncc(-c2ccc(C#Cc3ccc(-c4cnc([C@@H]5CCCN5C(=O)[C@@H](NC(=O)N5CCN(C)CC5)C(C)C)[nH]4)cc3)cc2)[nH]1 [Compound 287] | > 1000 nM |
| CC(C)[C@H](NC(=O)N1CCCC1)C(=O)N1CCC[C@H]1c1ncc(-c2ccc(C#Cc3ccc(-c4cnc([C@@H]5CCCN5C(=O)[C@@H](NC(=O)N5CCCC5)C(C)C)[nH]4)cc3)cc2)[nH]1 [Compound 288] | > 1000 nM |
